Data on 3 compounds can be found in patent publication US20100146643A1, “RAPID IN VIVO MODEL FOR ANGIOGENESIS” (ANTICANCER, INC, priority 2006, published 2010).

Assay [1] relates to MIA PaCa-2 human pancreatic cancer. The following applies: orthotopically transplanted MIA PaCa-2-RFP, ND-GFP transgenic nude mice; cited from earlier work.
The subject of assay [2] is XPA-1-RFP human pancreatic cancer. Particulars: liver metastasis of XPA-1-RFP, ND-GFP transgenic nude mice; cited from earlier work.
Assay [3] has as its system B16F10-RFP murine melanoma. Particulars: ND-GFP mice transplanted with B16F10-RFP; cited from earlier work.
Assay [4] deals with nascent blood vessels in bFGF-containing Gelfoam. Kind of assay: Gelfoam subcutaneous implant angiogenesis model in ND-GFP transgenic nude mice. In kind it is in vivo, mouse. On the procedure: Transgenic C57/B6 nude mice that produce green fluorescent protein (GFP) in endothelial cells were used. These transgenic mice (6-8 weeks old) were anesthetized with tribromoethanol. Gelfoam® (Pharmacia & Upjohn company, Kalamazoo, Mich.) blocks (5×5 mm) were either treated with 300 ng basic fibroblast growth factor (bFGF) (Chemicon, Temecula, Calif.) in 75 μl RPMI 1640 medium (Cellgro, Herndon, Va.) or not treated. The Gelfoam® blocks were transplanted into the subcutis on both flanks of the transgenic mice, a treated block on one flank and an untreated block on the other. One group of mice was given daily ip injections of 5 μg/g of doxorubicin and another group was given 0.9% NaCl solution (vehicle control) at days 0, 1, and 2 after transplantation of Gelfoam®. Skin flaps were made at day 7 under anesthesia. Angiogenesis was quantified by measuring the length of fluorescent nascent blood vessels in the skin flap by in vivo fluorescence microscopy imaging.
A Leica fluorescence stereo microscope model LZ12 equipped with a mercury lamp and a 50-W power supply was used. Selective excitation of GFP was produced through a D425/60 band-pass filter and a 470 DCXR dichroic mirror. Emitted fluorescence was collected through a long-pass filter (GG475; Chroma Technology, Brattleboro, Vt.) on a Hamamatsu C5810 3-chip cooled color charge-coupled device camera (Hamamatsu Photonics, Bridgewater, N.J.). Images were processed for contrast and brightness and analyzed with the use of IMAGE PRO PLUS 3.1 software (Media Cybernetics, Silver Spring, Md.). High-resolution images of 1024×724 pixels were captured directly on an IBM PC or continuously through video output on a high-resolution Sony VCR (model SLVR1000; Sony, Tokyo).
The experimental data are expressed as the mean ±SD. Statistical analysis was performed using the two-tailed Student's t test.

The mark [5] stands for this setting: Gelfoam containing 300 ng bFGF, mice given 0.9% NaCl, day 7.

Regarding `Nc1ccn([C@@H]2O[C@H](CO)[C@@H](O)C2(F)F)c(=O)n1` [Gemcitabine], in assay [1], the “mean nascent blood vessel density in the tumor” value is “significantly decreased” and the tumor volume entry is recorded as “decreased tumor volume”. Besides, the “mean nascent blood vessel density in the liver metastases” value in assay [2] was “significantly decreased”.
With `COc1cccc2c1C(=O)c1c(O)c3c(c(O)c1C2=O)C[C@@](O)(C(=O)CO)C[C@@H]3O[C@H]1C[C@H](N)[C@H](O)[C@H](C)O1` [doxorubicin], in assay [3], the nascent tumor angiogenesis result is given as “inhibit nascent tumor angiogenesis” and the tumor growth entry is “inhibit”. The “extent of angiogenesis (mean nascent blood vessel length, FIG. 4) in bFGF-treated Gelfoam” value in assay [4] (doxorubicin 5 μg/g ip at days 0, 1, 2, day 7, compared with untreated Gelfoam in NaCl-treated mice) is listed as “reduced below that of untreated Gelfoam® in the sodium chloride treated mice”. For the same compound, the “neovasculature in the bFGF-treated foam (FIG. 2c)” value in assay [4] (doxorubicin 5 μg/g ip at days 0, 1, 2, skin flap at day 7, Gelfoam with 300 ng bFGF) is listed as “greatly diminished neovasculature”. Besides, in assay [4] (doxorubicin 5 μg/g ip at days 0, 1, 2, skin flap at day 7, Gelfoam without bFGF), the “angiogenesis in the foam not containing bFGF (FIG. 2d)” value is reported as “no observable angiogenesis”.
Take “bFGF: basic fibroblast growth factor (Chemicon), growth factor loaded in Gelfoam to encourage angiogenesis”: in assay [4] (setting [5]), the “mean nascent blood vessel length” value is listed as roughly 6 mm/mm^2 and the “neovasculature formed in the bFGF-containing Gelfoam patch (FIG. 2a)” value is reported as “a large complex of neovasculature is formed”.
